63 molecules from paper PMC7539012, “Hyperphosphorylated tau aggregation and cytotoxicity modulators screen identified prescription drugs linked to Alzheimer's disease and cognitive functions” (Scientific Reports, 2020) can be followed below.

Structures can show the parent of a compound that is named as a salt.

For the first assay, the system named is T1, 1N4R p-tau.
T1 construct: made in house; host or cells: E. coli (PIMAX system)
The assay can be described thus: p-tau aggregation modulator screen of 1280-compound library (ThS fluorescence net change over 16 h).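 On ThS net change: 30 µM compound with 6 µM p-tau over 16 h.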 Format: biochemical. The arrangement: key to PTAI>2SD: *: PTAI>2SD; key to PTAI>3SD: *: PTAI>3SD.
Settings: not given
Take `CC[N+](C)(CC)CCC[n+]1c(-c2ccccc2)c2cc(N)ccc2c2ccc(N)cc21.[I-].[I-]` [Propidium iodide]: the ThS net change was found to be 269.

As for `CC(C)c1cccc(C(C)C)c1O` [Propofol], the ThS net change was 400.

With `C[C@@H]1O[C@@H](O[C@@H]2C=C3CC[C@@H]4[C@H](CC[C@]5(C)[C@@H](c6ccc(=O)oc6)CC[C@]45O)[C@@]3(C)CC2)[C@H](O)[C@H](O)[C@H]1O` [Proscillaridin A], the ThS net change came to 498.

For the molecule `CCN(CC)CCCC(C)Nc1c2ccc(Cl)cc2nc2ccc(OC)cc12.Cl.Cl.O.O` (centres unmarked) [Quinacrine dihydrochloride hydrate], the ThS net change turned out to be 203.

As for `C=C[C@H]1CN2CC[C@H]1C[C@@H]2[C@@H](O)c1ccnc2ccc(OC)cc12.Cl.O` [Quinidine hydrochloride monohydrate], the ThS net change is given as 282.

For the molecule `O=C(c1ccc(OCCN2CCCCC2)cc1)c1c(-c2ccc(O)cc2)sc2cc(O)ccc12` [Raloxifene hydrochloride], the “PTAI>2SD” value is “*” and the ThS net change worked out at 133.

In turn, `O.O=P(O)(O)C(O)(Cc1cccnc1)P(=O)(O)O` [Risedronic acid monohydrate] registered a ThS net change of 455.

In turn, `Cc1nc2n(c(=O)c1CCN1CCC(c3noc4cc(F)ccc34)CC1)CCCC2` [Risperidone] yielded a ThS net change of 447.

In the case of `CCN(C)C(=O)Oc1cccc([C@H](C)N(C)C)c1` [Rivastigmine], the ThS net change came out at 462.

`CN(C)CCc1c[nH]c2ccc(Cn3cncn3)cc12` [Rizatriptan benzoate] had a ThS net change of 473.

Staying with this assay, now noted: 1280-compound library screen; ThS fluorescence net change over 16 h.
The molecule `[H]/N=C(\N/C(=N/[H])Nc1ccc(Cl)cc1)NC(C)C` [Proguanil hydrochloride] came in with a ThS net change of 389.

On to `CC(C)NCC(O)c1ccc2ccccc2c1.Cl` (centres unmarked) [Pronethalol hydrochloride], for which the ThS net change is given as 411.

For the molecule `CCCOc1ccc(C(=O)OCCN(CC)CC)cc1N` [Proparacaine hydrochloride], the ThS net change was 392.

In the case of `CCCOc1cc(N)ccc1C(=O)OCCN(CC)CC` [Propoxycaine hydrochloride], the ThS net change turned out to be 403.

In the case of `CCCc1cc(C(N)=S)ccn1` [Prothionamide], the ThS net change is 412.

Molecule `CNCCCC1c2ccccc2C=Cc2ccccc21` [Protriptyline hydrochloride] registered a ThS net change of 412.

In turn, `CCN1CCC[C@H]1CNC(=O)c1c(O)c(Cl)cc(Cl)c1OC` [Raclopride] gave a ThS net change of 382.

The molecule `CNC(=C[N+](=O)[O-])NCCSCc1ccc(CN(C)C)o1` [Ranitidine hydrochloride] registered a ThS net change of 405.

As to `O=C(NC(Cc1cc(=O)[nH]c2ccccc12)C(=O)O)c1ccc(Cl)cc1` (centres unmarked) [Rebamipide], the ThS net change was found to be 378.

`NC[C@H]1O[C@H](OC2[C@@H](N)C[C@@H](N)[C@H](O)[C@H]2O[C@@H]2O[C@H](CO)[C@@H](O)[C@H]2O)[C@H](N)[C@@H](O)[C@@H]1O.O=S(=O)(O)O` (some centres unmarked) [Ribostamycin sulfate salt] gave a ThS net change of 379.

The molecule `CS(=O)(=O)c1ccc(C2=C(c3ccccc3)C(=O)OC2)cc1` [Rofecoxib] registered a ThS net change of 396.

Still in this assay, the particulars now being: 1280-compound library screen; […].
In the case of `CN(C)C(=O)Oc1ccc[n+](C)c1.[I-]` [Pyridostigmine iodide], the ThS net change is given as 381.

Molecule `CCC1(CC)C(=O)C=CNC1=O` [Pyrithyldione] showed a ThS net change of 404.

`CCOc1ccccc1O[C@@H](c1ccccc1)[C@H]1CNCCO1.CS(=O)(=O)O` [Reboxetine mesylate] displayed a ThS net change of 386.

Staying with this assay, now noted: flag: p-tau aggregation inhibitor, ThS net change more than 2 SD from mean.
As to `CO[C@H]1/C=C/O[C@@]2(C)Oc3c(C)c(O)c4c(O)c(c(/C=N/N5CCN(C)CC5)c(O)c4c3C2=O)NC(=O)/C(C)=C\C=C\[C@H](C)[C@H](O)[C@@H](C)[C@@H](O)[C@@H](C)[C@H](OC(C)=O)[C@@H]1C` [Rifampicin], the “PTAI>2SD” value was “*”.

Consider `CO[C@H]1/C=C/O[C@@]2(C)Oc3c(C)c(O)c4c(O)c(c5c(nc6cc(C)ccn65)c4c3C2=O)NC(=O)/C(C)=C\C=C\[C@H](C)[C@H](O)[C@@H](C)[C@@H](O)[C@@H](C)[C@H](OC(C)=O)[C@@H]1C` [Rifaximin], for which the “PTAI>2SD” value is recorded as “*”.

The assay is the same for the next values; noted with them: flag: p-tau aggregation inhibitor, ThS net change more than 3 SD from mean.
Regarding `Cc1cc(/C=C/c2ccc3cc(N(C)C)ccc3[n+]2C)c(C)n1-c1ccccc1` [Pyrvinium pamoate], the “PTAI>3SD” value was “*”.

Regarding `CO[C@H]1/C=C/O[C@@]2(C)Oc3c(C)c(O)c4c(O)c(c(/C=N/N5CCN(C6CCCC6)CC5)c(O)c4c3C2=O)NC(=O)/C(C)=C\C=C\[C@H](C)[C@H](O)[C@@H](C)[C@@H](O)[C@@H](C)[C@H](OC(C)=O)[C@@H]1C` [Rifapentine], the “PTAI>3SD” value is reported as “*”.

Still in this assay, the particulars now being: library screen, ThS fluorescence net change over 16 h with p-tau.
`CN(C)CCCN1c2ccccc2Sc2ccccc21` [Promazine hydrochloride] returned a ThS net change of 306.

`CCCNCC(O)COc1ccccc1C(=O)CCc1ccccc1` (centres unmarked) [Propafenone hydrochloride] displayed a ThS net change of 317.

In turn, `CN1CCCN=C1/C=C/c1cccs1.O=C(O)C(O)C(O)C(=O)O` [Pyrantel tartrate] registered a ThS net change of 312.

With `COc1ccc(CN(CCN(C)C)c2ccccn2)cc1` [Pyrilamine maleate], the ThS net change was 298.

As for `Cc1cc(/C=C/c2ccc3cc(N(C)C)ccc3[n+]2C)c(C)n1-c1ccccc1` [Pyrvinium pamoate], the ThS net change is -379.

`CO[C@H]1/C=C/O[C@@]2(C)Oc3c(C)c(O)c4c(c3C2=O)C2=NC3(CCN(CC(C)C)CC3)NC2=C(NC(=O)/C(C)=C\C=C\[C@H](C)[C@H](O)[C@@H](C)[C@@H](O)[C@@H](C)[C@H](OC(C)=O)[C@@H]1C)C4=O` [Rifabutin] had a ThS net change of 267.

With `CO[C@H]1/C=C/O[C@@]2(C)Oc3c(C)c(O)c4c(O)c(c(/C=N/N5CCN(C)CC5)c(O)c4c3C2=O)NC(=O)/C(C)=C\C=C\[C@H](C)[C@H](O)[C@@H](C)[C@@H](O)[C@@H](C)[C@H](OC(C)=O)[C@@H]1C` [Rifampicin], the ThS net change was determined as 158.

Consider `CO[C@H]1/C=C/O[C@@]2(C)Oc3c(C)c(O)c4c(O)c(c(/C=N/N5CCN(C6CCCC6)CC5)c(O)c4c3C2=O)NC(=O)/C(C)=C\C=C\[C@H](C)[C@H](O)[C@@H](C)[C@@H](O)[C@@H](C)[C@H](OC(C)=O)[C@@H]1C` [Rifapentine], for which the ThS net change stood at 86.

On to `CO[C@H]1/C=C/O[C@@]2(C)Oc3c(C)c(O)c4c(O)c(c5c(nc6cc(C)ccn65)c4c3C2=O)NC(=O)/C(C)=C\C=C\[C@H](C)[C@H](O)[C@@H](C)[C@@H](O)[C@@H](C)[C@H](OC(C)=O)[C@@H]1C` [Rifaximin], for which the ThS net change is 112.

Staying with this assay, now noted: p-tau aggregation modulator screen of 1280-compound library; ThS fluorescence net change.
`OC(CCN1CCCC1)(c1ccccc1)C1CCCCC1` (centres unmarked) [Procyclidine hydrochloride]: the ThS net change stood at 347.

`CC(=O)[C@H]1CC[C@H]2[C@@H]3CCC4=CC(=O)CC[C@]4(C)[C@H]3CC[C@]12C` [Progesterone] registered a ThS net change of 336.

Consider `CCCN(CCC)C(=O)C(CCC(=O)O)NC(=O)c1ccccc1` (centres unmarked) [Proglumide], for which the ThS net change came to 331.

Molecule `CC(CN1c2ccccc2Sc2ccccc21)N(C)C` (centres unmarked) [Promethazine hydrochloride] registered a ThS net change of 330.

`CC(C)[N+](C)(CCOC(=O)C1c2ccccc2Oc2ccccc21)C(C)C` [Propantheline bromide] had a ThS net change of 373.

`NC(=O)c1cnccn1` [Pyrazinamide] registered a ThS net change of 370.

Molecule `Cc1ncc(CO)c(CO)c1O` [Pyridoxine hydrochloride] gave a ThS net change of 354.

In turn, `CCc1nc(N)nc(N)c1-c1ccc(Cl)cc1` [Pyrimethamine] registered a ThS net change of 354.

`O=C(O)/C=C\C(=O)O.O=C(O)/C=C\C(=O)O.c1ccc2nc(N3CCNCC3)ccc2c1` [Quipazine dimaleate salt] came in with a ThS net change of 377.

`COC(=O)[C@H]1[C@H]2C[C@@H]3c4[nH]c5cc(OC)ccc5c4CCN3C[C@H]2C[C@@H](OC(=O)c2cc(OC)c(OC)c(OC)c2)[C@@H]1OC` [Reserpine] gave a ThS net change of 355.

In turn, `CC1=C(/C=C/C(C)=C/C=C/C(C)=C/C(=O)O)C(C)(C)CCC1` [Retinoic acid] returned a ThS net change of 374.

`Cl.Nc1nc2ccc(OC(F)(F)F)cc2s1` [Riluzole hydrochloride]: the ThS net change is recorded as 353.

The molecule `CC(N)C12CC3CC(CC(C3)C1)C2` (centres unmarked) [Rimantadine Hydrochloride] gave a ThS net change of 365.

Turning to `CC(NCCc1ccc(O)cc1)C(O)c1ccc(O)cc1` (centres unmarked) [Ritodrine hydrochloride], the ThS net change is reported as 363.

The same assay, now with this note: p-tau aggregation modulator screen of the compound library, ThS fluorescence net change.
Molecule `CCCc1cc(=O)[nH]c(=S)[nH]1` [Propylthiouracil] had a ThS net change of 422.

In turn, `OCCOCCN1CCN(C2=Nc3ccccc3Sc3ccccc32)CC1` [Quetiapine hemifumarate] showed a ThS net change of 424.

Take `CCOC(=O)[C@H](CCc1ccccc1)N[C@@H](C)C(=O)N1Cc2ccccc2C[C@H]1C(=O)O` [Quinapril HCl]: the ThS net change came out at 417.

Take `CCC1NC(=O)c2cc(S(N)(=O)=O)c(Cl)cc2N1` (centres unmarked) [Quinethazone]: the ThS net change came to 427.

`COCCCOc1ccnc(C[S+]([O-])c2nc3ccccc3[nH]2)c1C` (centres unmarked) [Rabeprazole Sodium salt]: the ThS net change was 420.

For `CC(=O)SCC(Cc1ccccc1)C(=O)NCC(=O)OCc1ccccc1` (centres unmarked) [Racecadotril], the ThS net change came out at 462.

For the molecule `CNCC(O)c1ccc(O)c(O)c1` (centres unmarked) [Racepinephrine HCl], the ThS net change stood at 453.

The molecule `Cc1nc2ccc(CN(C)c3ccc(C(=O)N[C@@H](CCC(=O)O)C(=O)O)s3)cc2c(=O)[nH]1` [Raltitrexed] had a ThS net change of 443.

`CCOC(=O)[C@H](CCc1ccccc1)N[C@@H](C)C(=O)N1[C@H](C(=O)O)C[C@@H]2CCC[C@@H]21` [Ramipril] returned a ThS net change of 436.

In turn, `COc1ccccc1OCC(O)CN1CCN(CC(=O)Nc2c(C)cccc2C)CC1` (centres unmarked) [Ranolazine] displayed a ThS net change of 414.

On to `C#CCN[C@@H]1CCc2ccccc21` [Rasagiline], for which the ThS net change is listed as 447.

`CCN1CCC[C@H]1CNC(=O)c1c(OC)ccc(Br)c1OC.Cl` [Remoxipride Hydrochloride] had a ThS net change of 460.

The molecule `CCOc1cc(CC(=O)N[C@@H](CC(C)C)c2ccccc2N2CCCCC2)ccc1C(=O)O` [Repaglinide] displayed a ThS net change of 481.

`NC(=O)c1ncn([C@@H]2O[C@H](CO)[C@@H](O)[C@H]2O)n1` [Ribavirin] came in with a ThS net change of 458.

In turn, `CCC(=O)[C@@]1(C)[C@H](C)C[C@H]2[C@@H]3CCC4=CC(=O)C=C[C@]4(C)[C@H]3[C@@H](O)C[C@@]21C` [Rimexolone] yielded a ThS net change of 434.

Consider `CC(C)c1nc(CN(C)C(=O)N[C@H](C(=O)N[C@@H](Cc2ccccc2)C[C@H](O)[C@H](Cc2ccccc2)NC(=O)OCc2cncs2)C(C)C)cs1` [Ritonavir], for which the ThS net change was 538.
